Assay: Binding affinity to Escherichia coli J96 FimH lectin domain (Phe1 to Thr158) expressed in Escherichia coli C43 (DE3) by isothermal titration calorimetry assay

Compound | Kd
COCC#Cc1ccc(O[C@H]2O[C@H](CO)[C@@H](O)[C@H](O)[C@@H]2O)cc1 | 0.0595 µM
CCCCCCCO[C@H]1O[C@H](CO)[C@@H](O)[C@H](O)[C@@H]1O | 0.0073 µM
CCCCO[C@H]1O[C@H](CO)[C@@H](O)[C@H](O)[C@@H]1O [BUTYLALPHAMAN] | 0.154 µM

Assay: Binding affinity to Escherichia coli J96 FimH lectin domain (Phe1 to Thr158) expressed in Escherichia coli C43 (DE3) by surface plasmon resonance analysis

Compound | Kd
O=C(C[C@H]1O[C@H](CO)[C@@H](O)[C@H](O)[C@@H]1O)Nc1nc2ccccc2s1 | 0.059 µM
O=C(C[C@H]1O[C@H](CO)[C@@H](O)[C@H](O)[C@@H]1O)Nc1ccccc1 | 0.372 µM
O=C(C[C@H]1O[C@H](CO)[C@@H](O)[C@H](O)[C@@H]1O)Nc1ccc(O)cc1 | 0.328 µM
CCCCCCCO[C@H]1O[C@H](CO)[C@@H](O)[C@H](O)[C@@H]1O | 0.0031 µM
COc1ccc(C#CCO[C@H]2O[C@H](CO)[C@@H](O)[C@H](O)[C@@H]2O)cc1 | 0.053 µM
OCC#Cc1ccc(O[C@H]2O[C@H](CO)[C@@H](O)[C@H](O)[C@@H]2O)cc1 | 0.0369 µM
CCCCO[C@H]1O[C@H](CO)[C@@H](O)[C@H](O)[C@@H]1O [BUTYLALPHAMAN] | 0.151 µM
O=C(C[C@H]1O[C@H](CO)[C@@H](O)[C@H](O)[C@@H]1O)Nc1ccc(Cl)cc1 | 0.113 µM
O=C(C[C@H]1O[C@H](CO)[C@@H](O)[C@H](O)[C@@H]1O)Nc1nc2ccccc2[nH]1 | 4.2 µM
CCCSCCCO[C@H]1O[C@H](CO)[C@@H](O)[C@H](O)[C@@H]1O | 0.014 µM
